Laboratory results published in patent publication US7572765B2, “Conformationally constrained parathyroid hormone (PTH) analogs” (The General Hospital Corporation, priority 2001, dated 2009).
Square brackets hold non-standard residues; d marks the D form. Peptide text beside a SMILES is read from it. hArg = N=C(N)NCCCC[C@H](N)C(=O)O; Aib = CC(C)(N)C(=O)O

Molecular target: T1, PTH-1 receptor endogenously expressed in SaOS-2 cells (Homo sapiens, UniProt Q03431)
T1 construct: endogenously expressed relatively low levels of the PTH-1 receptor; endogenous in cells; host or cells: SaOS-2 (SaOS-2-B10) human osteosarcoma cells
T1 sequence (Q03431 27-593): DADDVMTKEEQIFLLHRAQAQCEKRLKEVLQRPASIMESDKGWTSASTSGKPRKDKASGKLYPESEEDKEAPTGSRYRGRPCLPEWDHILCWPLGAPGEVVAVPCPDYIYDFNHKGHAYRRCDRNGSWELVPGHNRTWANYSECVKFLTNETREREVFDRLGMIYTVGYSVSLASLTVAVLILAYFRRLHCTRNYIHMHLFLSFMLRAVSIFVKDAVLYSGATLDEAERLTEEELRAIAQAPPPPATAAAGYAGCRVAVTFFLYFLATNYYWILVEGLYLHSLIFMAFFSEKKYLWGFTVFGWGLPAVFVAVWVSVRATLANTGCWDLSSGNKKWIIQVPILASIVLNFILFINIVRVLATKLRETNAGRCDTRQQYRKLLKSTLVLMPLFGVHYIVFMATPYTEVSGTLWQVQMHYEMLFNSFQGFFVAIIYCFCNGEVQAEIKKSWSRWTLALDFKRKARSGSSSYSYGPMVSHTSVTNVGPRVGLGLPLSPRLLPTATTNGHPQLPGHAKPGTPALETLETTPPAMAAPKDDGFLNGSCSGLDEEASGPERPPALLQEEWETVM
Test: cAMP stimulation in SaOS-2 cells
Format: cell-based
Details: for EMAX(obs.): basal 6.4 ± 0.8; for EC50: N.R. = no cAMP response detected
Experimental: Cell Culture. The cell line HKRK-B28 (Takasu, H., et al., J. Bone Miner. Res. 14:11-20 (1999)) was derived from the porcine kidney cell line, LLC-PK1 by stable transfection with plasmid DNA encoding the human P1R and expresses ˜280,000 receptors per cell. These cells, as well as COS-7 cells and SaOS-2-B10 cells, were cultured at […] in T-75 flasks ([…]) in Dulbecco's modified Eagle's medium (DMEM) supplemented with fetal bovine serum (10%), penicillin G (20 units/ml), streptomycin sulfate (20 μg/ml) and amphotericin B (0.05 μg/ml) in a humidified atmosphere containing 5% CO2. Stock solutions of EGTA/trypsin and antibiotics were from GIBCO; fetal bovine serum was from Hyclone Laboratories (Logan, Utah). COS-7 cells sub-cultured in 24-well plates were transfected with plasmid DNA (200 ng per well) encoding the wild-type human P1R or truncated human P1R deleted for residues (24-181) (Shimizu, M., et al., J. Biol. Chem. 275:21836-21843 (2000)) that was purified by cesium chloride/ethidium bromide density gradient centrifugation, and FuGENE 6 transfection reagent (Roche Indianapolis Ind.) according to the manufacturer's recommended procedure. All cells, in 24-well plates, were treated with fresh media and shifted to 33° C. for 12 to 24 h prior to assay.
cAMP Stimulation. Stimulation of cells with peptide analogs was performed in 24-well plates. Cells were rinsed with 0.5 mL of binding buffer (50 mM Tris-HCI, […], 5 mM KCl, 2 mM CaCl2, 5% heat-inactivated horse serum, 0.5% fetal bovine serum, adjusted to pH 7.5 with HCl) and treated with 200 μL of cAMP assay buffer (Delbecco's modified Eagle's medium containing 2 mM 3-isobutyl-1-methylxanthine, 1 mg/mL bovine serum albumin, 35 mM Hepes-NaOH, pH 7.4) and 100 μL of binding buffer containing varying amounts of peptide analog (final volume=300 μL). The medium was removed after incubation for 30 to 60 minutes at room temperature, and the cells were frozen on dry ice, lysed with 0.5 mL 50 mM HCl, and refrozen ([…]). The cAMP content of the diluted lysate was determined by radioimmunoassay. The EC50 response values were calculated using nonlinear regression (see below).
Data Calculation. Calculations were performed using Microsoft® Excel. Nonlinear regression analyses of binding and cAMP dose-response data were performed using the four-parameter equation: yp=Min+[(Max−Min)/(1+(IC50/x)^slope)]. The Excel Solver function was utilized for parameter optimization, as described previously (Carter, P. H., et al., Endocrinology 140: 4972-4981 (1999); Bowen, W. P., and Jerman, J. C., Trends in Pharmacol. Sci. 16: 413-417 (1995)). Differences between paired data sets were statistically evaluated using a one-tailed Student's t-test, assuming unequal variances for the two sets.
The number of PTH-1 receptors expressed on the surface of the PTH target cells in bone or kidney is uncertain, but it is likely to be considerably lower than that found in HKRK-B28 cells. Therefore, several of the Aib-mounted PTH analogs were evaluated using SaOS-2 cells.

EMAX(obs.) (cAMP) | fold more potent in stimulating cAMP formation than [M]PTH(1-14) | fold less potent than PTH(1-34) (cAMP) | EC50 (cAMP) | EC50 (cAMP, listed as native PTH(1-14)) | Compound
350 ± 30 pmole/well |  |  |  |  | CCCC[C@H](NC(=O)[C@H](CCCNC(=N)N)NC(=O)[C@H](CCC(=O)O)NC(=O)[C@@H](NC(=O)[C@H](CO)NC(=O)[C@H](C)NC(=O)[C@H](CC(C)C)NC(=O)[C@H](Cc1c[nH]cn1)NC(=O)[C@H](CCCCN)NC(=O)CNC(=O)[C@H](CC(C)C)NC(=O)[C@H](CC(N)=O)NC(=O)[C@H](Cc1c[nH]cn1)NC(=O)[C@H](CCCC)NC(=O)[C@H](CC(C)C)NC(=O)[C@H](CCC(N)=O)NC(=O)[C@@H](NC(=O)[C@H](CCC(=O)O)NC(=O)[C@H](CO)NC(=O)[C@@H](NC(=O)[C@H](C)N)C(C)C)[C@@H](C)CC)C(C)C)C(=O)N[C@@H](CCC(N)=O)C(=O)N[C@@H](Cc1c[nH]c2ccccc12)C(=O)N[C@@H](CC(C)C)C(=O)N[C@@H](CCCNC(=N)N)C(=O)N[C@@H](CCCCN)C(=O)N[C@@H](CCCCN)C(=O)N[C@@H](CC(C)C)C(=O)N[C@@H](CCC(N)=O)C(=O)N[C@@H](CC(=O)O)C(=O)N[C@H](C(=O)N[C@@H](Cc1c[nH]cn1)C(=O)N[C@@H](CC(N)=O)C(=O)N[C@@H](Cc1ccc(O)cc1)C(N)=O)C(C)C [PTH(1-34), [Nle^8,21, Tyr^34]PTH(1-34)amide, reference compound]
320 ± 30 pmole/well | 130 fold | 13 fold |  |  | CC[C@H](C)[C@H](NC(=O)[C@H](CCC(=O)O)NC(=O)C(C)(C)NC(=O)[C@@H](NC(=O)C(C)(C)N)C(C)C)C(=O)N[C@@H](CCC(N)=O)C(=O)N[C@@H](CC(C)C)C(=O)N[C@@H](CCSC)C(=O)N[C@@H](Cc1c[nH]cn1)C(=O)N[C@@H](CCC(N)=O)C(=O)N[C@@H](CCCCNC(=N)N)C(=O)N[C@@H](C)C(=O)N[C@@H](CCCCN)C(=O)N[C@@H](Cc1c[nH]c2ccccc12)C(N)=O [[Aib^1,3,M]PTH(1-14), AibValAibGluIleGlnLeuMetHisGlnHarAlaLysTrp] (H-[Aib]V[Aib]EIQLMHQ[hArg]AKW-NH2)
340 ± 30 pmole/well |  |  |  |  | CC[C@H](C)[C@H](NC(=O)[C@H](CCC(=O)O)NC(=O)[C@H](C)NC(=O)[C@@H](NC(=O)[C@H](C)N)C(C)C)C(=O)N[C@@H](CCC(N)=O)C(=O)N[C@@H](CC(C)C)C(=O)N[C@@H](CCSC)C(=O)N[C@@H](Cc1c[nH]cn1)C(=O)N[C@@H](CCC(N)=O)C(=O)N[C@@H](CCCCNC(=N)N)C(=O)N[C@@H](C)C(=O)N[C@@H](CCCCN)C(=O)N[C@@H](Cc1c[nH]c2ccccc12)C(N)=O [[M]PTH(1-14), [Ala^3,12,Gln^10,Har^11,Trp^14]PTH(1-14)amide, reference compound] (H-AVAEIQLMHQ[hArg]AKW-NH2)
 |  |  | N.R. | no activity could be detected | H-AVSEIQLMHNLGKH-NH2 [PTH(1-14), reference compound]
